Measurements as given in patent US10220033B2, “Substituted benzoxazepine for cancer therapy” (University of Cape Town, priority 2014, dated 2019).

Assays:
[1] = test system: AP-1 transcriptional activity in CaSki cells; assay: AP-1 luciferase reporter assay; format: cell-based; conditions: 10 or 15 μM, 24 hours (FIG. 15)
Procedure: To assay for AP-1 and p65 luciferase activities, 40 000 CaSki cells were plated in 24-well plates, and transfected with 50 ng of an API luciferase reporter (containing four copies of the AP-1 binding site) or 50 ng of a p65 luciferase reporter (containing five copies of the p65 binding site, Clontech, CA, USA) and 5 ng pRL-TK (encoding Renilla luciferase, Promega), using 0.16 μl TransFectin™ lipid reagent (Bio-Rad, Hercules, Calif., USA). The following day cells were treated with 10 or 15 μM Compound A. Luciferase activity was measured 24 hours after Compound A treatment using the Dual-LuciferaseR Reporter assay system (Promega, Madison, Wis., USA), according to the manufacturers' instructions. Luciferase readings were measured using the Veritas™ microplate luminometer (Promega) and luciferase readings were normalised to Renilla luciferase in the same extract.

[2] = test system: DMB and FG0 non-cancer fibroblast cells; assay: Cell proliferation assay (MTT), non-cancer cells; format: cell-based
Procedure: To assay for cell proliferation after Compound A treatment, 5000 cells/well were plated in 96-well plates and treated with 5, 10 or 15 μM Compound A, after which cell proliferation was monitored every 24 hours for four days, using MTT.
This effect was sustained for the full 5 day time period, confirming that there was no population of cells that recovered from the treatment.

[3] = test system: GFP-Kpnα2 localisation in CaSki cells; assay: GFP-Kpnα2 nuclear translocation, fluorescence microscopy; format: cell-based; conditions: 10 μM
Procedure: For controls, equivalent volumes of DMSO were used. Cells were fixed with 4% paraformaldehyde prior to fluorescence microscopy and cell nuclei were stained with 0.5 μg/ml DAPI. Due to fluorescence emitted by Compound A in the GFP channel, the Compound A signal had to be excluded from the GFP signal by separating the emission spectra. A Zeiss LSM 510 Meta confocal microscope was used and images captured using the ZEN 2009 camera with associated AxioVision software (version 4.7). Pictures were edited using the Zeiss image browser. For quantification, 100 cells from each condition were analysed using Image J.
Compound A with cell-killing ability was tested for its ability to block nuclear import using a fluorescence-based screening assay. The assay was based on the fact that Kpnα enters the nucleus in a complex with Kpnβ1. Kpnα2 (Impα1 or Rch1) was GFP-tagged (FIG. 8) and its localisation monitored after treatment with the various compounds, via fluorescence microscopy. […] It was noted that Compound A fluoresced itself, and thus the compound fluorescence signal had to be excluded from the GFP-Kpnα2 signal by separating the emission spectra.

WHCO6 tumours = assay: Xenograft tumour model; format: in vivo; conditions: female nude mice, 50 mg/kg i.p. every 2-3 days for 3 weeks (FIG. 28)
Procedure: WHCO6 cells were harvested and resuspended in PBS. For tumour inoculation, cancer cells (5×10^6 per mouse) were s.c. implanted into the hind flanks of female nude mice. Once tumours had reached a palpable size, drug treatment was initiated, where tumour-bearing mice were randomized and dosed i.p. with either vehicle (DMSO) or Compound A (50 mg/kg), every 2-3 days for 3 weeks. Tumour volumes were measured twice a week, using calipers, and tumour volume estimated using the following formula: volume=(length×width×width)/2. Mice were sacrificed 3 weeks after the commencement of drug treatment.

[4] = test system: NFAT transcriptional activity in NFAT-transfected HeLa cells; assay: NFAT luciferase reporter assay; format: cell-based; conditions: stimulated with TPA and ionomycin (FIGS. 16-20)
Procedure: To assay for NFAT luciferase activity, 30 000 HeLa cells were plated per well in 24-well plates, and transfected with 50 ng GFP-NFAT plasmid (Addgene plasmid #24219, gift of Jerry Crabtree (Beals C R, Clipstone N A, Ho S N, Crabtree G R. Nuclear localization of NF-ATc by a calcineurin-dependent, cyclosporin-sensitive intramolecular interaction. Genes Dev 1997 Apr. 1; 11(7):824-34)), 50 ng NFAT-luciferase (Addgene plasmid #10959, gift of Toren Finkel (Ichida M, Finkel T. Ras regulates NFAT3 activity in cardiac myocytes. J Biol Chem 2001 Feb. 2; 276(5):3524-30)), and 5 ng pRL-TK, using 0.4 μl Genecellin™ Transfection Reagent (Celtic Molecular Diagnostics, South Africa). The NFAT-luciferase reporter plasmid contains three tandem repeats of a 30 bp fragment of the IL-2 promoter known to bind NFAT. The following day cells were treated with 10 or 15 μM Compound A and after an overnight incubation, stimulated with 100 nM TPA (Sigma) and 1.3 μM Ionomycin (Santa Cruz Biotechnology, Santa Cruz, Calif., USA) for 5 hours, following which luciferase activity was measured.
An assay for nuclear NFAT following ionomycin and Compound A treatment was carried out, using an NFAT-luciferase reporter that is activated by nuclear NFAT. The phorbol ester TPA was used to co-stimulate NFAT, as it has been shown previously that TPA and ionomycin elicit synergistic stimulation of NFAT luciferase activity (Northrop J P, Ullman K S, Crabtree G R. Characterization of the nuclear and cytoplasmic components of the lymphoid-specific nuclear factor of activated T cells (NF-AT) complex. J Biol Chem 1993 Feb. 5; 268(4):2917-23).

CaSki cells = assay: Cell cycle analysis; format: cell-based; conditions: 24 hours (FIGS. 24 and 25)
Procedure: CaSki cells were plated in 60 mm dishes and treated with the appropriate concentration of Compound A. Cells were harvested 24 hours after treatment, and fixed in 100% ethanol, after which they were stained with Propidium Iodide and the cell cycle profiles analysed using a BD flow cytometer (BD Biosciences, NJ, USA). Data analysis was performed using ModFit 3.3 software.

[5] = test system: NFY nuclear localisation in CaSki cells; assay: Nuclear and cytoplasmic protein extraction, Western Blot; format: cell-based; conditions: IC50 concentration, 48 hours (FIGS. 11, 12)
Procedure: (§1) Nuclear and cytoplasmic protein fractionation was performed using the NE-PER Nuclear Protein Extraction Kit (ThermoScientific, Rockford, Ill., USA), according to the manufacturer's instructions. […] Western Blot analysis was performed using a goat anti-Karyopherin α2 (C-20) antibody (sc-6917, Santa Cruz Biotechnology), and a rabbit anti-NFYA (H-209) antibody (sc-10779, Santa Cruz Biotechnology). An anti-β-tubulin (H-235) antibody (sc-9104, Santa Cruz Biotechnology) was used to control for cytoplasmic protein loading and a rabbit anti-TATA-box binding protein (TBP) (N-12) and antibody (sc-204, Santa Cruz Biotechnology) to control for nuclear protein loading. Densitometry was performed using Image J.

[6] = test system: endogenous Kpnα2 nuclear localisation in CaSki cells; assay: as above; format: cell-based; conditions: IC50 concentration, 48 hours (FIGS. 11, 12)
Procedure: as §1

Question: Which AP-1 luciferase activity [1] does the source give for `CN(C)CCCn1c(N)c(-c2nc3ccccc3[nH]2)c2nc3ccccc3nc21` [Compound A, 3-(1H-benzimidazol-2-yl)-1-(3-dimethylaminopropyl)pyrrolo[5,4-b]quinoxalin-2-amine] here?
Answer: decreased in a dose-dependent manner

Question: What about the cell proliferation ([2]; 10 μM (FIGS. 21 E and F)) of the same compound?
Answer: proliferated relatively normally

Question: What about the “time within which cell death occurred” value ([2]; 15 μM) of the same compound?
Answer: 24 to 48 h

Question: And the “number of cells containing cytoplasmic GFP-Kpnα2” value ([3]; 24 hours (FIG. 9))?
Answer: significant increase

Question: And the “GFP-Kpnα2 nuclear fluorescence signal” value ([3]; 24 hours (FIG. 10))?
Answer: significant decrease

Question: And the “tumour growth (normalised tumour volume)” value (WHCO6 tumours)?
Answer: significantly inhibits tumour growth

Question: What about the “NFAT activation (NFAT-luciferase reporter)” value [4] of the same compound?
Answer: significantly diminished NFAT activation

Question: And the “percentage of cells in the G1 stage of the cell cycle” value (CaSki cells)?
Answer: increase

Question: And the “percentage of cells in the S and G2/M stages” value (CaSki cells)?
Answer: decrease

Question: What about the “NFY in the nuclear fraction” value [5] of the same compound?
Answer: decrease

Question: What about the “amount of Kpnα2 in the nucleus” value [6] of the same compound?
Answer: decrease
